This is an account of results in article PMC11321617 (Advanced Science, 2024).

In brackets after ≈: the same amount, converted by molar mass. Bridge positions count the residues as written; N and C are the ends. Square brackets hold non-standard residues; d marks the D form. Peptide text beside a SMILES is read from it. * marks the point of attachment. X1 = CC[C@H](C)CCCCC(=O)*; Dab = NCC[C@H](N)C(=O)O

Assay [1] concerns diabetic wound infections. The following applies: cecropin ref 27b, SCIBIOIII ref 28, QHREDGS ref 29, LL‐37 ref 30; cited from earlier work. From the text:
A significant concern in diabetic wound infections is the complexity of mixed bacterial infections, contributing to prolonged wound healing times, extended periods of inflammation, and a heightened risk of ulcer recurrence.^[ [26] ^] Naturally, an ointment that eliminates these microorganisms holds enormous promise for treating diabetes patients who have recurring infections and preventing the development of antibiotic resistance and transmission. According to earlier research, this CaAGE hydrogel basis was ideal for the AMPs.^[ [27] ^] in terms of the stability, release profile, and antibacte ...

Assay [2] concerns drug‐resistant Gram‐positive bacterial infections. The following applies: cited from earlier work. From the text:
Conventional screening methods have been unsuccessful in discovering new antibiotics in recent years.^[ [16] ^] Traditional screening sources seem overexploited and tend to produce compounds that are already known. However, uncultured bacteria represent a significant and untapped reservoir of novel natural product frameworks.^[ [17] ^] […] In the context of this ...

Assay [3] relates to persisters induced from E. coli. In words: Bactericidal activity against persisters. The following applies: colistin at 4 × MIC (25 µmol L^−1), 24 h; rifampicin‐induced E. coli persisters; n = 3. Type of assay: cell-based, Escherichia coli. The procedure: Previously recognized and widely used procedures for developing persisters. The bacterial cells, with a turbidity of 0.8 at 600 nm, were obtained in the mid‐log phase. The culture was cultured at 37 °C for 30 min after 100 µg mL^−1 rifampicin (Macklin, Shanghai, China) was added. The rifampicin‐treated culture was centrifuged, and the pellet was resuspended in TSB containing ampicillin (final concentration: 300 µg mL^−1; Macklin, Shanghai, China) to remove nonpersister cells. […] Then cultured for 24 h, spotted on TSB agar, and incubated overnight at 37 °C.

Assay [4] relates to E. coli O157:H7. In words: Time‐kill kinetics. It is filed as cell-based, Escherichia coli. Conditions: 4 × MIC, 1 × 10^5 CFU mL^−1 E. coli O157:H7, 37 °C; n = 3. Here is the method: During the logarithmic growth phase, 1 × 10^5 CFU mL^−1 of E. coli O157:H7 was diluted in 1 mL, the peptides were incubated with the bacterial solution for several intervals.^[ [42] ^] The solution was diluted to a suitable ratio and evenly distributed across the TSB agar plates. Before being counted, colonies were cultured for one night at 37 °C.

For assay [5], the system named is Escherichia coli O157:H7. It is filed as cell-based. Conditions: broth dilution, TSB, 5 × 10^5 CFU mL^−1, 18 h, 37 °C. The procedure: (§1) The MICs of the peptides were determined using the microplate broth dilution method.^[ [32] ^] The bacteria in the mid‐log phase were diluted to 5 × 10^5 colony forming units (CFU) mL^−1 in TSB. 100 µL of serially diluted peptide solution and 100 µL of diluted bacteria were put to a sterile 96‐well plate.

In assay [6] the test system is Salmonella typhimurium SL1344. The assay can be described thus: MIC assay (microplate broth dilution). It is filed as cell-based. Conditions: Salmonella enterica, 18 h. Here is the method: as §1
In assay [7] the test system is Listeria monocytogenes ATCC19115. The assay can be described thus: microbe, parasite or virus in culture. The following applies: ATCC19115, 18 h. The procedure:
as §1

Assay [8] has as its system Bacillus subtilis BL‐4. The assay can be described thus: microbe, parasite or virus in culture. Conditions: 18 h. Here is the method:
as §1

In assay [9] the test system is Listeria monocytogenes EGD. The assay can be described thus: microbe, parasite or virus in culture. Conditions: 18 h. Here is the method:
as §1

In assay [10] the test system is Listeria monocytogenes 10403S. In words: microbe, parasite or virus in culture. The following applies: 18 h. Here is the method:
as §1

Assay [11] has as its system Enterococcus faecalis ATCC51299. The assay can be described thus: microbe, parasite or virus in culture. Conditions: ATCC51299, 18 h. It is filed as cell-based. The procedure:
as §1

Assay [12] deals with Staphylococcus aureus ATCC25923. In words: microbe, parasite or virus in culture. It is filed as cell-based. The following applies: broth dilution, TSB, 5 × 10^5 CFU mL^−1, 18 h, 37 °C. The procedure:
as §1

The test system of assay [13] is Staphylococcus aureus ATCC25904. The assay can be described thus: microbe, parasite or virus in culture. Type of assay: cell-based. The following applies: broth dilution, TSB, 5 × 10^5 CFU mL^−1, 18 h, 37 °C. Here is the method: as §1
Assay [14] relates to Staphylococcus aureus ATCC29213. The assay can be described thus: microbe, parasite or virus in culture. The following applies: broth dilution, TSB, 5 × 10^5 CFU mL^−1, 18 h, 37 °C. It is filed as cell-based. Here is the method: as §1
In assay [15] the test system is Methicillin‐Resistant Staphylococcus aureus USA300. In words: microbe, parasite or virus in culture. Conditions: broth dilution, TSB, 5 × 10^5 CFU mL^−1, 18 h, 37 °C, MRSA USA300. Type of assay: cell-based. Here is the method:
as §1

Assay [16] deals with Enterococcus faecalis 4P‐SA. In words: microbe, parasite or virus in culture. Conditions: broth dilution, TSB, 5 × 10^5 CFU mL^−1, 18 h, 37 °C. Type of assay: cell-based. The procedure: as §1
The subject of assay [17] is Pseudomonas aeruginosa ATCC 27853. The assay can be described thus: microbe, parasite or virus in culture. It is filed as cell-based. The following applies: ATCC27853, broth dilution, TSB, 5 × 10^5 CFU mL^−1, 18 h, 37 °C. Here is the method:
as §1

Assay [18] relates to Klebsiella pneumoniae K7. In words: microbe, parasite or virus in culture. It is filed as cell-based. The following applies: broth dilution, TSB, 5 × 10^5 CFU mL^−1, 18 h, 37 °C. Here is the method: as §1
In assay [19] the test system is Staphylococcus epidermidis YYF‐771. The assay can be described thus: microbe, parasite or virus in culture. Type of assay: cell-based. The following applies: broth dilution, TSB, 5 × 10^5 CFU mL^−1, 18 h, 37 °C. Here is the method: as §1
Assay [20] has as its system Salmonella pullorum ATCC19945. The assay can be described thus: microbe, parasite or virus in culture. It is filed as cell-based. Conditions: Salmonella enterica, broth dilution, TSB, 5 × 10^5 CFU mL^−1, 18 h, 37 °C. Here is the method: as §1

For the compound LL‐37, in assay [1], the “bacterial count reduction / wound healing in diabetic wound infections” value is recorded as “none of these peptides demonstrated the capacity to significantly reduce bacterial counts by ≈3‐log or expedite wound healing within a 10‐day timeframe”.

With clovibactin, in [2], the efficacy result is reported as “effectively controlling drug‐resistant Gram‐positive bacterial infections”.

Turning to “QHREDGS [AMP researched for diabetic wound infections]”, the “bacterial count reduction / wound healing in diabetic wound infections” value in [1] is on record as “none of these peptides demonstrated the capacity to significantly reduce bacterial counts by ≈3‐log or expedite wound healing within a 10‐day timeframe”.

With `CC[C@H](C)CCCCC(=O)N[C@@H](CCN)C(=O)N[C@H](C(=O)N[C@@H](CCN)C(=O)N[C@H]1CCNC(=O)[C@H]([C@@H](C)O)NC(=O)[C@H](CCN)NC(=O)[C@H](CCN)NC(=O)[C@H](CC(C)C)NC(=O)[C@@H](CC(C)C)NC(=O)[C@H](CCN)NC1=O)[C@@H](C)O` [colistin, Colistin] (X1-[Dab]T[Dab][Dab][Dab][dL]L[Dab][Dab]T; lactam 4-C (inferred); N-terminus assumed), in [3], the effect on persisters entry is “had little effect on the survival”. Further, the “time to eradicate all E. coli cells” value in [4] is 2 h. In [5], the MIC stood at 3.13 µM (≈ 3.66 µg/mL).

As for `CC1(C)S[C@@H]2[C@H](NC(=O)[C@H](N)c3ccccc3)C(=O)N2[C@H]1C(=O)O` [ampicillin, Ampicillin], the MIC in [6] is 12.5 µM (≈ 4.37 µg/mL); in assay [7] it was 6.25 µM (≈ 2.18 µg/mL); in [8], 1.57 µM (≈ 0.549 µg/mL); in assay [9] it was 4.5 µM (≈ 1.57 µg/mL); in [10], 25 µM (≈ 8.74 µg/mL); in [11], 12.5 µM (≈ 4.37 µg/mL). Moreover, the MIC is 1.57 µM (≈ 0.549 µg/mL) in [12]; > 71.6 µM in assay [13]; 1.57 µM (≈ 0.549 µg/mL) in assay [14]; 71.6 µM (≈ 25 µg/mL) in [15]; > 71.6 µM in assay [16]; > 71.6 µM in assay [17]. The MIC in assay [18] is > 71.6 µM; in assay [19], 1.57 µM (≈ 0.549 µg/mL); in assay [20], 35.8 µM (≈ 12.5 µg/mL).

Take cecropin: the “bacterial count reduction / wound healing in diabetic wound infections” value in [1] was “none of these peptides demonstrated the capacity to significantly reduce bacterial counts by ≈3‐log or expedite wound healing within a 10‐day timeframe”.
